The values below come from patent US7956040B2, “Combination of catechin and quercetin for pharmaceutical or dietary use” (Giuliani International Limited, priority 2000, dated 2011).

In assay [1] the test system is platelets. Nature of the assay: Cytosol platelet Ca2+ concentration / calcium mobilization (Fura 2) after collagen. Format: cell-based, human. The following applies: for decrease in calcium mobilization: 4 mg of collagen/L; for mobilization of calcium (percentage change in intracellular calcium concentration): catechin or quercetin alone. The protocol: The concentrations of cytosol platelet Ca^2+ were measured using the fluorescent indicator dye Fura 2, according to Grynkiewicz et al.; the changes in fluorescence were then monitored with a fluorimeter SFM 25 (Kontron, Zurich, Switzerland) set at emission wavelength of 510 nm and excitation wavelength of 340 nm.
(In general: Calcium flux is commonly read through the fluorescence of an indicator in the cells.)

Another assay has as its system platelet aggregation. The settings on record: high concentrations, several literature studies; cited from earlier work.
Assay [2] has as its system platelets. Nature of the assay: Platelet adhesion to collagen ([3H]oleic acid-labelled platelets). The settings on record: 50 μmol of collagen/L [sic]. Format: cell-based, human. The protocol: The activation of platelets by collagen is a multistage process. Thus, after being attached initially to the platelets via the pathways of the second messenger, collagen stimulates the release of thromboxane and ADP, which are important platelet agonists that induce aggregation. To study the adhesion of the platelets to collagen (50 mg/L) without the interference of aggregation and of the activation induced by all the known agonists released by the platelet granules on stimulation by collagen, the platelets were subjected to preincubation with aspirin, a cyclooxygenase inhibitor, with the ADP removal system phosphocreatine and creatine kinase, and with the fibrinogen-fibronectin antagonist RDGS (13).

Assay [3] concerns platelets. In words: Platelet function / platelet activation, overall conclusion of the study. In kind it is cell-based, human. The settings on record: individually at 5 μmol of quercetin/L or 20 μmol of catechin/L (so in the source).
The test system of assay [4] is platelets. Nature of the assay: Platelet aggregation in vitro caused by collagen (according to Born). In kind it is cell-based, human. The following applies: for influence on platelet aggregation: 25 μmol of catechin/L or 5 μmol of quercetin/L used on their own; for platelet aggregation caused by collagen: catechin or quercetin alone, two concentrations of collagen (2 and 4 mg/L). As for the experimental part: DCFH-DA was added to the PSEC (final concentration: 40 μmol/L); after 15 minutes of incubation with or without catechin or quercetin, the PSEC were activated with collagen. […] The samples were analysed in a Coulter XL-MCL flow cytometer (Hialeah, Fla.) equipped with an argon laser (emission 480 nm) set up for measuring the logarithmic diffusion of direct light, which is a measure of the dimensions of the particle; logarithmic diffusion of light at 90°, which is a measure of the granularity of the cell; and green fluorescence (DCF) 510-550 nm. The fluorescence signal generated by the probe was expressed as the stimulation index, i.e. intensity of mean channel fluorescence of the stimulated platelets/intensity of mean channel fluorescence of the unstimulated platelets. Platelet aggregation in vitro was evaluated according to Born. The collagen was used at concentrations of 2-4 mg/L.

Another assay has as its system phospholipase C. In words: Activation of phospholipase C: IP3 production in collagen-stimulated platelets. The following applies: for decrease in IP3 production: 10 mg of collagen/L; for production of [32P]IP3 in platelets stimulated by collagen: catechin or quercetin alone.
Assay [5] deals with platelets. In words: Production of hydrogen peroxide in DCFH-DA-loaded platelets stimulated with collagen (flow cytometry). In kind it is cell-based, human. The settings on record: for production of hydrogen peroxide caused by collagen: catechin or quercetin alone, scalar concentrations (Cat 50 and 100, Q 10 and 20 μmol/L), 10 and 20 mg of collagen/L; for formation of hydrogen peroxide caused by collagen: each compound alone at the low quantities (catechin 25 μmol/L; quercetin 5 μmol/L). As for the experimental part:
DCFH-DA was added to the PSEC (final concentration: 40 μmol/L); after 15 minutes of incubation with or without catechin or quercetin, the PSEC were activated with collagen. The reaction was stopped with 2 mmol EGTA/L after 1 min. The samples were analysed in a Coulter XL-MCL flow cytometer (Hialeah, Fla.) equipped with an argon laser (emission 480 nm) set up for measuring the logarithmic diffusion of direct light, which is a measure of the dimensions of the particle; logarithmic diffusion of light at 90°, which is a measure of the granularity of the cell; and green fluorescence (DCF) 510-550 nm. The fluorescence signal generated by the probe was expressed as the stimulation index, i.e. intensity of mean channel fluorescence of the stimulated platelets/intensity of mean channel fluorescence of the unstimulated platelets. Platelet aggregation in vitro was evaluated according to Born. The collagen was used at concentrations of 2-4 mg/L.
Flow cytometry makes use of the properties of DCFH-DA, which diffuses rapidly through the cellular membranes and is then trapped inside the cell through a reaction of deacetylation. In the presence of hydrogen peroxide, this compound is oxidized to dichlorofluorescein (DCF), which is highly fluorescent.
(A flow cytometer gives signals particle by particle.)

The mark [6] stands for this setting: 100 μmol catechin/L or 20 μmol quercetin/L.
The mark [7] stands for this setting: catechin (50 and 100 μmol/L) or quercetin (10 and 20 μmol/L) on their own.

Method for phospholipase C: Drug-free human blood obtained from healthy volunteers was coagulated with acid:citrate:dextrose. Platelet-rich plasma was centrifuged at 800×g for 20 min at room temperature and the pellet was suspended in a volume equal to half the initial volume of autologous plasma, low in platelets. The platelet suspensions were incubated for 1 h at 37° C. with 3 μmol of Fura 2/AM per L, 40 μmol DCFH-DA/L, 7.4 GBq (2 Ci) ^32Pi/L, or 3.7 MBq (1 mCi) [^3H]oleic acid/L. The platelets were washed by exclusion chromatography on Sepharose 2B using a Ca^2+-free Tyrodes buffer (134 mmol NaCl/L, 2.9 mmol KCl/L, 0.34 mmol Na2HPO4/L and 2 mmol MgCl2/L) containing 0.2% of bovine serum albumin, 5 mmol glucose/L and 10 mmol HEPES/L, pH 7.35.
The production of 1,3,4-inositol triphosphate (IP3, an indicator of activation of phospholipase C, was analysed 30 s after platelet activation according to Pulcinelli et al. J. Chromatogr. 1992,575:51-5. The collagen was used at a concentration of 10 mg/L, which was the lowest concentration capable of inducing a reproducible response. The platelet suspensions identified with [^3H]oleic acid were used for evaluating platelet adhesion to collagen (50 mg/L) according to Smith and Dangelmaier.

With `O=c1c(O)c(-c2ccc(O)c(O)c2)oc2cc(O)cc(O)c12` [quercetin], the “decrease in calcium mobilization” value in the assay with platelets [1] (20 μmol of quercetin/L) turned out to be 65%. For the same compound, the “mobilization of calcium (percentage change in intracellular calcium concentration)” value in the assay on platelets [1] is “inhibited the mobilization of calcium”. The “platelet aggregation in vitro” value in the assay with platelet aggregation was “inhibit platelet aggregation”. For the same compound, the “platelet adhesion to collagen” value in the assay on platelets [2] (setting [6]) is “suppressed significantly”. Also, the “platelet adhesion to collagen” value in the assay with platelets [2] (setting [7]) is “inhibited platelet adhesion to collagen”. In addition, the “effect on platelet function” value in the assay on platelets [3] is recorded as “no effect on platelet function”. Further, the “inhibition of platelet aggregation” value with platelets [4] (20 μmol of quercetin/L, 2 mg/L collagen) was found to be 50%. Further, the “inhibition of platelet aggregation” value in the assay on platelets [4] (20 μmol of quercetin/L, 4 mg/L collagen) came to 43%. In addition, in the assay with platelets [4], the “influence on platelet aggregation” value was “no influence on platelet aggregation” and the “platelet aggregation caused by collagen” value is recorded as “inhibited platelet aggregation”. Further, the “decrease in IP3 production” value in the assay on phospholipase C (20 μmol of quercetin/L) is listed as 93%. The “production of [32P]IP3 in platelets stimulated by collagen” value in the assay with phospholipase C was “inhibited”. In addition, in the assay with platelets [5], the “production of hydrogen peroxide caused by collagen” value is reported as “inhibited the production of hydrogen peroxide” and the “formation of hydrogen peroxide caused by collagen” value was “neither of the two compounds alone at such low quantities is reported to have had any inhibitory effect”.
Take `Oc1ccc(C=Cc2cc(O)cc(O)c2)cc1` [resveratrol]: in the assay with platelet aggregation, the “platelet aggregation in vitro” value is “inhibit platelet aggregation”.
With catechin, the “decrease in calcium mobilization” value in the assay with platelets [1] (100 μmol of catechin/L) was determined as 71%. The “mobilization of calcium (percentage change in intracellular calcium concentration)” value in the assay with platelets [1] is given as “inhibited the mobilization of calcium”. Moreover, the “platelet aggregation in vitro” value in the assay on platelet aggregation is “inhibit platelet aggregation”. In addition, the “platelet adhesion to collagen” value in the assay with platelets [2] (setting [6]) is “suppressed significantly”. Also, the “platelet adhesion to collagen” value in the assay with platelets [2] (setting [7]) is reported as “inhibited platelet adhesion to collagen”. The “effect on platelet function” value with platelets [3] is given as “no effect on platelet function”. For the same compound, in the assay on platelets [4], the “influence on platelet aggregation” value is listed as “no influence on platelet aggregation” and the “platelet aggregation caused by collagen” value is given as “inhibited platelet aggregation”. Also, the “inhibition of platelet aggregation” value in the assay with platelets [4] (100 μmol of catechin/L, 2 mg of collagen/L) is given as “≈ 75%”. Also, the “inhibition of platelet aggregation” value in the assay on platelets [4] (100 μmol of catechin/L, 4 mg of collagen/L) is recorded as “≈ 39%”. Also, the “decrease in IP3 production” value in the assay with phospholipase C (100 μmol of catechin/L) was determined as 50%. Also, the “production of [32P]IP3 in platelets stimulated by collagen” value with phospholipase C is given as “inhibited”. Moreover, in the assay with platelets [5], the “production of hydrogen peroxide caused by collagen” value is “inhibited the production of hydrogen peroxide” and the “formation of hydrogen peroxide caused by collagen” value is recorded as “neither of the two compounds alone at such low quantities is reported to have had any inhibitory effect”.
